Measured values from ChEMBL document CHEMBL1201862, “PubChem BioAssay data set” (2004).
Active and inactive are the calls of the source.

How the values were obtained:
[1] = target: Beta-galactosidase (Escherichia coli, UniProt Q8VNN2); assay: PubChem AID 485352; type: functional
[2] = target: T1, Type-1 angiotensin II receptor (Homo sapiens, UniProt P30556); assay: antagonism of angiotensin II type 1 receptor – cell-based, uHTS hits, selectivity assay for APJ receptor antagonist project, dose response (AID 463214); type: functional;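 further: antagonist potency against angiotensin II stimulated AT1 response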
T1 sequence (P30556 whole entry): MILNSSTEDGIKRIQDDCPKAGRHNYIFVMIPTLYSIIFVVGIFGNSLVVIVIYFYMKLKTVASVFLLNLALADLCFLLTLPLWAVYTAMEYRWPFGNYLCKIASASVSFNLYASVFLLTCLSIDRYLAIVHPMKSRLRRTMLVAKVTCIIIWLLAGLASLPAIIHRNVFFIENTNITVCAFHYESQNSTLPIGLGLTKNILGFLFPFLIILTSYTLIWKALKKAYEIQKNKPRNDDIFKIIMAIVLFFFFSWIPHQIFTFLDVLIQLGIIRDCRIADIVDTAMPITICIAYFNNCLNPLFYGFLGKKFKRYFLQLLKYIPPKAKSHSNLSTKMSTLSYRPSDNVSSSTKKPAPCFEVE

[3] = target: T2, Polyadenylate-binding protein 1 (Homo sapiens, UniProt P11940); assay: MLLE binding blockers, Cy5 peptide tracer – biochemical, fluorescence polarization, Cy5-PAM2 peptide, secondary, miRNA deadenylation inhibitor project, dose response (AID 602260); type: functional; details: read-out: IC50_Mean
[4] = target: T2, Polyadenylate-binding protein 1; assay: MLLE domain peptide-binding blockers, IC50 – biochemical, fluorescence polarization, FITC-PAM2 peptide, dose response (AID 602259); type: functional; details: read-out: IC50_Mean
[5] = target: Phospholipase A2 (Homo sapiens, UniProt P04054); assay: phospholipase A2 activity inhibition – biochemical, set 2, counter-screen for ATG4B inhibitor project, dose response (AID 588586); type: functional
[6] = target: Cysteine protease ATG4B (Homo sapiens, UniProt Q9Y4P1); assay: autophagin-1 cysteine protease inhibition – biochemical, fluorescence, set 2, dose response (AID 588584); type: functional
[7] = system: Jurkat; assay: blockers of NF-kB activation in T cells – Jurkat, luciferase reporter, luminescence, B- and T-cell, dose response (AID 489004); type: functional, cell-based; details: Homo sapiens;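 further: NF-kB luciferase reporter Jurkat cells stimulated with PMA plus ionomycin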
[8] = HEK-293T viability loss, compound-treated – cell-based, uHTS hits, cytotoxicity control for B/T-cell NF-kB inhibitor project, dose response (AID 489019); type: functional;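 further: IC50 reflects cytotoxicity as loss of cell viability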
[9] = system: INS1; assay: INS-1E survival protection against cytokine death – cell-based, luminescence, retest, dose response (AID 449756); type: functional; details: Rattus norvegicus;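 further: cell death triggered by IL-1 beta plus TNF-alpha plus IFN-gamma mixture; protective hits raise ATP signal compared with cytokine alone wells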
[10] = target: Tyrosine-protein phosphatase non-receptor type 7 (Homo sapiens, UniProt P35236); type: functional
[11] = target: Glyceraldehyde-3-phosphate dehydrogenase (Homo sapiens, UniProt P04406)
[12] = target: T3, Dual specificity protein phosphatase 6 (Rattus norvegicus, UniProt Q64346)
T3 sequence (Q64346 whole entry): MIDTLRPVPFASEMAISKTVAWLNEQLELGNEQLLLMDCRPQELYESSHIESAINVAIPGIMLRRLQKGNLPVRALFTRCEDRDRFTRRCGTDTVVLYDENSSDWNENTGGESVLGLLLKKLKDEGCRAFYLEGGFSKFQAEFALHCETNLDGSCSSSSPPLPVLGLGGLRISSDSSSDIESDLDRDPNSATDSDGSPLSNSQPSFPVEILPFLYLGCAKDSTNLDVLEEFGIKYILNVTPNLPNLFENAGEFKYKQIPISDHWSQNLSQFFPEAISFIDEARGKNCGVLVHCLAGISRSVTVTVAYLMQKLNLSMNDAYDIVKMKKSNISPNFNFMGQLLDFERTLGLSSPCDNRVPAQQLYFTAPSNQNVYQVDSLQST

[13] = target: T3, Dual specificity protein phosphatase 6; type: functional
[14] = Luminescence Cell-Based Dose Response Follow up to Identify Inhibitors of Platelet Dense Granule Release. [Related pubchem assays (depositor defined):AID1663, AID1678, AID2398]; type: functional
[15] = target: T4, Endoribonuclease toxin MazF (Escherichia coli K-12, UniProt P0AE70); assay: activation of MazEF endoribonuclease cleavage – biochemical, fluorescence, single-stranded RNA substrate, uHTS hits, dose response (AID 588481); type: functional
[16] = target: T4, Endoribonuclease toxin MazF; assay: substrate-only fluorescence increase artefacts – biochemical, single-stranded RNase substrate, counter-screen for MazEF activator project, dose response (AID 588502); type: functional
[17] = viability of uninfected HEp-2 cells – cell-based, HTS, cytotoxicity control for RSV inhibitor project, dose response (AID 2410); type: functional; details: human respiratory syncytial virus
[18] = Luminescence Cell-Based Dose Retest to Confirm Inhibitors of Cancer Stem Cells. [Related pubchem assays (depositor defined):AID2717, AID2721]; type: functional; details: Homo sapiens
[19] = target: Trypsin (Sus scrofa, UniProt P00761); assay: trypsin protease activity blockade – biochemical, quenched peptide fluorescence, cherry-pick, selectivity assay for Rce1 protease inhibitor project, dose response (AID 488789)
[20] = target: CAAX prenyl protease 2 (Homo sapiens, UniProt Q9Y256); assay: inhibition of Ras-converting CAAX protease Rce1 – biochemical, yeast membranes, quenched-peptide fluorescence, cherry-pick, dose response (AID 588849)
[21] = cells

T4 sequence (P0AE70 whole entry): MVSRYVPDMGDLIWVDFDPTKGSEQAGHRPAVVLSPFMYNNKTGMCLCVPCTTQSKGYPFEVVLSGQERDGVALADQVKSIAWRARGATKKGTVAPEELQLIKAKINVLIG
T2 sequence (P11940 whole entry, the tested form may be a part): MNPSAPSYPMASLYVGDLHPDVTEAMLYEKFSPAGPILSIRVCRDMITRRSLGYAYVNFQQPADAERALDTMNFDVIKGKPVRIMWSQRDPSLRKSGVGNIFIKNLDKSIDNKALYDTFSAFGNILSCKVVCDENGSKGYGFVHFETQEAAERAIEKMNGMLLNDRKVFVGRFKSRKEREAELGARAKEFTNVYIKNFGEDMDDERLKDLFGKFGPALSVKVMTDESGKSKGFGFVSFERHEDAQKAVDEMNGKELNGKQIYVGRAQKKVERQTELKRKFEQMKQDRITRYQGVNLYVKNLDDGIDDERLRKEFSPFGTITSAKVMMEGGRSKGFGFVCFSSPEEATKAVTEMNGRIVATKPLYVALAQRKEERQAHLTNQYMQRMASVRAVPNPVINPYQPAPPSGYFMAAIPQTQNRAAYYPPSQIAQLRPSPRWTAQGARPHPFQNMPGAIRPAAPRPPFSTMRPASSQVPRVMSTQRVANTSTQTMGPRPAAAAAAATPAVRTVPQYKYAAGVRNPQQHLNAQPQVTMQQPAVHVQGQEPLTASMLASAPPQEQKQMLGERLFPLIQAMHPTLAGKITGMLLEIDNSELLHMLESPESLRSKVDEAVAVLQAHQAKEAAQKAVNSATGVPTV
Chain of Beta-galactosidase (Q8VNN2 whole entry): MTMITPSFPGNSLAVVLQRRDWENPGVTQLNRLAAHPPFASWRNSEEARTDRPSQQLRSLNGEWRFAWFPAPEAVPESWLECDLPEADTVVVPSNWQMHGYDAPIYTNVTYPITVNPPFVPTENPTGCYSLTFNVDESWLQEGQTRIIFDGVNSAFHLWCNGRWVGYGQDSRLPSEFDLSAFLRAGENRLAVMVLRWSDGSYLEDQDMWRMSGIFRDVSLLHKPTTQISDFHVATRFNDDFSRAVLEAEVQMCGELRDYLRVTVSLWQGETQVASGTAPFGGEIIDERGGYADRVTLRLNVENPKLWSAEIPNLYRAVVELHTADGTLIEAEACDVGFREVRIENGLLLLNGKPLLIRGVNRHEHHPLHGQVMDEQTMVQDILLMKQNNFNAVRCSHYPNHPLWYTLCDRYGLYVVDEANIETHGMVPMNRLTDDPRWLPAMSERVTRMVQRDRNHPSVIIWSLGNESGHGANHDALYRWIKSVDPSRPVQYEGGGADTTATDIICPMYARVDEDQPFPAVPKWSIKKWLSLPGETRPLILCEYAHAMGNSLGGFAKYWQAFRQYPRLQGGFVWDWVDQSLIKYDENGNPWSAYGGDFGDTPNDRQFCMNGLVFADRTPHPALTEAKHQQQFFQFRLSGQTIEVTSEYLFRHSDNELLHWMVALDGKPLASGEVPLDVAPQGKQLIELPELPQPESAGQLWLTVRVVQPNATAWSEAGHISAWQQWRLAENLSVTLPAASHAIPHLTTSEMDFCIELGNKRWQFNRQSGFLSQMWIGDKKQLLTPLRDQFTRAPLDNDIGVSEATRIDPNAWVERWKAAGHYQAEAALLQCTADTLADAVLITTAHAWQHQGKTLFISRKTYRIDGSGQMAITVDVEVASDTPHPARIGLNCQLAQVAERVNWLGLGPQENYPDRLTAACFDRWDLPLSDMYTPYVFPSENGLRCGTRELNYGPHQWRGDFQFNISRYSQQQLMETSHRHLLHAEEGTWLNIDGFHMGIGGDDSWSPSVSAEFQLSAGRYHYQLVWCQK
Chain of CAAX prenyl protease 2 (Q9Y256 whole entry): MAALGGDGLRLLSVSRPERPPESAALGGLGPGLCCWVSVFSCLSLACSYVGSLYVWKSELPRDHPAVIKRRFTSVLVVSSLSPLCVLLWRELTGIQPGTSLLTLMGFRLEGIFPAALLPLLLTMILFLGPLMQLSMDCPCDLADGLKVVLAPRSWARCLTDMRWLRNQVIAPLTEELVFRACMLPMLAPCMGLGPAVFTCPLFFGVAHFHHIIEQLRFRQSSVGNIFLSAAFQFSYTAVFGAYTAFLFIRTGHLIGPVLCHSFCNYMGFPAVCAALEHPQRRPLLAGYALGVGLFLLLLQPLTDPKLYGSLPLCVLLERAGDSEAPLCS
Chain of Trypsin (P00761 whole entry): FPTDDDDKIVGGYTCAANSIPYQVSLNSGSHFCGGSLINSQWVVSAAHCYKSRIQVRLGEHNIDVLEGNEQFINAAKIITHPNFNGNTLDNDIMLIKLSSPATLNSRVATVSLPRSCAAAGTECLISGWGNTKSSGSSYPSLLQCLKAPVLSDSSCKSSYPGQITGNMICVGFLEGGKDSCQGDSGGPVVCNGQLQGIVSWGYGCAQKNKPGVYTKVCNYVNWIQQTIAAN
Chain of Tyrosine-protein phosphatase non-receptor type 7 (P35236 whole entry): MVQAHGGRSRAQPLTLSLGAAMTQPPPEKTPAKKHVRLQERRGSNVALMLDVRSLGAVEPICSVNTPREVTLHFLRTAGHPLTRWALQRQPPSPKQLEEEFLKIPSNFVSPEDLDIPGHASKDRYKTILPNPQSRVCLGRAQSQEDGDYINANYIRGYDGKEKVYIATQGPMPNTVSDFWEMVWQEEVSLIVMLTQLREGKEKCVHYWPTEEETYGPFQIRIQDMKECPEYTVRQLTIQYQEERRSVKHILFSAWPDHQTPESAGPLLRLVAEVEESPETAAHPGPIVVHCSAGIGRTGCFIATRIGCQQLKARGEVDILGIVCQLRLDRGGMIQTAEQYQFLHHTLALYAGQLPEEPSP
Chain of Cysteine protease ATG4B (Q9Y4P1 whole entry): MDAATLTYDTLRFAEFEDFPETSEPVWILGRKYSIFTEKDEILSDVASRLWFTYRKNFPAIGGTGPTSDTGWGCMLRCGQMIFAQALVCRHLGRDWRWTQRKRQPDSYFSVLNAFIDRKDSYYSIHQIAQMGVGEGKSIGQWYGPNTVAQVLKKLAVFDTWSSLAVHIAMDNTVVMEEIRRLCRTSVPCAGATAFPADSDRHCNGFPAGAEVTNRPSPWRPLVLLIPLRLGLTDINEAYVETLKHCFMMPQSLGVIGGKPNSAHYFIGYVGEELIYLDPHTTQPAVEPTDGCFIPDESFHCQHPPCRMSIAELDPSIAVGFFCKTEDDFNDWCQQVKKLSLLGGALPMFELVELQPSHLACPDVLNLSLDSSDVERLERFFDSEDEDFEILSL
Chain of Phospholipase A2 (P04054 whole entry): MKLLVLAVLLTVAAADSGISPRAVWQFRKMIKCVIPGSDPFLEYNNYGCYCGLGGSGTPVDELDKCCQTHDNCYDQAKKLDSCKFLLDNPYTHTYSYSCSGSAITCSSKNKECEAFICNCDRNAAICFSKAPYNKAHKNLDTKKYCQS
Chain of Glyceraldehyde-3-phosphate dehydrogenase (P04406 whole entry): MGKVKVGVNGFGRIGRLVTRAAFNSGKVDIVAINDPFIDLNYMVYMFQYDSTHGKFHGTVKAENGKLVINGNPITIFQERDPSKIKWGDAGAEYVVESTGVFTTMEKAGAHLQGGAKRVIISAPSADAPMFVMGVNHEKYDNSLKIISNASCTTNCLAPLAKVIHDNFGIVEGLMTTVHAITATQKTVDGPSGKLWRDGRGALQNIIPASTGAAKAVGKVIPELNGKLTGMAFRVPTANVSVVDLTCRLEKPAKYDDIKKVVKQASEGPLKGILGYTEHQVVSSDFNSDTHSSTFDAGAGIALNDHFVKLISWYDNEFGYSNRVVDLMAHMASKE

Cc1c(Cl)cccc1NC(=S)NNc1ncc(C(F)(F)F)cc1Cl
EC50 [1]: > 40 µM (inactive) | IC50 [2]: 11.9 µM (active) | IC50 [3]: > 66 µM (inactive) | IC50 [4]: > 66 µM (inactive)

O=C(NCc1cccc(C(F)(F)F)c1)C1CC(c2c(Cl)cccc2Cl)=NO1 (stereo unspecified)
IC50 [5]: 46.4 µM (inactive) | IC50 [6]: > 80 µM (inactive)

Cc1ccc(NC(=O)COc2ccc(N(C)C(=O)C(C)(C)C)cc2)cc1S(=O)(=O)N1CCCCC1
IC50 [7]: 8.2 µM (active) | IC50 [8]: > 80 µM (inactive) | AC50 [9]: 5.61 µM (active)

NC(=O)[C@H](Cc1ccccc1)n1c(=O)n(Cc2ccc(Br)cc2)c(=O)n(-c2ccccc2)c1=O
IC50 [10]: > 100 µM (not active) | IC50 [11]: > 100 µM (not active) | IC50 [12]: > 100 µM (inactive) | IC50 [13]: > 100 µM (inactive)

CC(=O)N/N=C(\C)c1ccc(NC(=O)C2CC2)cc1
EC50 [14]: 500 µM (inactive)

CCOC(=O)c1c(N=C(S)Nc2ccc(Cl)cc2)sc2c1CCN(C)C2
EC50 [15]: > 99 µM (inactive) | EC50 [16]: > 99 µM (inactive)

Cc1cccc(-c2oc3ccccc3c2C#CCCO)c1
CC50 [17]: 19.5 µM (active) | AC50 [18]: 7.86 µM (active) | AC50 [19]: 3.96 µM (active) | AC50 [20]: 32 µM (active) | IC50 [21]: 24.2 µM (active)
